Experimental data taken from patent EP4729530A1, “NOVEL PEPTIDE AND USE THEREOF” (Gemvax & Kael Co., Ltd., priority 2023, dated 2024).

Tests used:
[1] = system: AT8 (phospho-Tau S202/T205); assay: Immunofluorescence staining of brain tissue (AT8) for tau hyperphosphorylation; type: in vivo, mouse; conditions: GV2002 2 mg/kg subcutaneous, 3 times/week, 21 weeks
Description: (§1) In vivo experiments were performed on the 4R tauopathy mouse groups shown in FIG. 4 according to the schedule shown in FIG. 5 and the outline in Table 3 below.
The brains of a 4R tauopathy mouse model administered GV2002 for 5 months, from 7.5 to 12.5 months of age, were removed and analyzed using immunofluorescence staining.
For brain tissue sampling, the 4R tauopathy mouse models were anesthetized, and saline was perfused intracardially, after which the blood was removed using a perfusion pump device. Then, the brains were removed and weighed. The brains to be used for tissue staining experiments were fixed in a 4% PFA solution for 24 hours. The fixed brain tissue was immersed in a 20% sucrose solution for 24 hours and then in a 30% sucrose solution for 48 hours for dehydration. The dehydrated brain tissue was removed, excess moisture was eliminated, and the brain tissue and a cryoembedding agent (OCT compound) were placed together in a mold to protect the tissue, after which the brain tissue was rapidly frozen using dry ice. The frozen brain tissue mold was stored in a -80 °C freezer. Afterwards, the brain tissue was sectioned into 30-µm-thick sections using a cryostat and stored in a 0.05% sodium azide solution.
For immunofluorescence staining of brain tissue, 30-µm-thick frozen brain sections were selected according to brain region, washed three times with PBS for 10 minutes each, fixed in 3.7% formaldehyde for 5 minutes, and washed three times with PBS for 10 minutes each. The brain tissue samples were permeabilized in 0.3% PBS-T solution, and then blocked in 5% BSA solution in PBS for 1 hour. The brain tissues were incubated overnight in 3% BSA and 0.1% Tween-20 solution in PBS containing AT8 (phospho-Tau S202/T205) antibody diluted at a ratio of 1:200, which targets tau hyperphosphorylation. The brain tissues were washed three times with PBS for 10 minutes each. The brain tissues were then incubated for 1 hour at room temperature in 3% BSA and 0.1% Tween-20 solution in PBS containing secondary antibody diluted 1:500. The brain tissues were immersed in PBS solution and washed once for 10 minutes. […] The brain tissues were immersed in PBS solution and washed three times for 10 minutes each, and fluorescence imaging was performed using a slide scanner.
To obtain fluorescence images of the stained brain tissue, brain tissue slides were scanned using a Zeiss Axio Scan (Zeiss, Oberkochen, Germany). AT8 fluorescence levels in each brain tissue region obtained through fluorescence imaging, i.e., the somatosensory cortex, hippocampus (CA1), motor cortex, and substantia nigra, were calculated using ImageJ software (NIH). The calculated values were analyzed using one-way ANOVA with Dunnett's multiple comparisons test.

tau oligomer formation = assay: Brain Tau-BiFC imaging for tau oligomer formation; type: in vivo, mouse; conditions: GV2002 2 mg/kg subcutaneous, 3 times/week, 21 weeks
Description: as §1
Brains from a 4R tauopathy mouse model administered GV2002 for five months, from 7.5 to 12.5 months of age, were removed and analyzed using lipid staining.
Brain tissue sampling was performed in the same manner as in Example 4-5.
To remove autofluorescence from brain tissues through lipid staining, a 0.05% Sudan Black B solution in 70% ethanol was stirred overnight and then filtered through a 0.22-µm filter. 30-µm-thick frozen brain sections from each region were immersed in deionized water and washed three times for 5 minutes each. The brain tissue was then immersed in the prepared 0.05% Sudan Black B solution for 10 minutes to perform staining. The brain tissue stained with Sudan Black B was immersed in 0.1% PBS-T solution and washed at 30-second intervals to adjust the staining intensity and then washed three times with deionized water for 5 minutes each. Nuclear staining was performed by immersing the brain tissue in a 0.2-µg/mL Hoechst solution in deionized water for 20 minutes. The tissue was then washed three times with deionized water for 5 minutes each. Tau-BiFC imaging was performed using a slide scanner.
To obtain fluorescence images of the stained brain tissue, brain tissue slides were scanned using a Zeiss Axio Scan. Tau-BiFC fluorescence levels in each brain region obtained through fluorescence imaging, i.e., the somatosensory cortex, hippocampus (CA1), motor cortex, and substantia nigra, were calculated using ImageJ software. The calculated values were analyzed using one-way ANOVA with Dunnett's multiple comparisons test.

4R Tau^P301L-BiFC mouse [2] = assay: Y-maze experiment in 4R tauopathy mouse model; type: in vivo; conditions: GV2002 2 mg/kg subcutaneous, 3 times/week, 21 weeks; 8 minutes Y-maze
Description: as §1
Y-maze experiments were conducted on a 4R tauopathy mouse model administered GV2002 for five months, from 7.5 to 12.5 months of age, to evaluate the efficacy of GV2002 in alleviating impairment in spatial memory.
Prior to the experiment, mice were allowed one hour to acclimate to the testing environment. The mice's behavior was recorded for 8 minutes.

4R Tau^P301L-BiFC mouse [3] = assay: Open field experiment in 4R tauopathy mouse model; type: in vivo; conditions: GV2002 2 mg/kg subcutaneous, 3 times/week, 21 weeks; 10 minutes open field
Description: as §1
Open field experiments were conducted on mice with 4R tauopathy administered GV2002 for five months, from 7.5 to 12.5 months of age, to evaluate the efficacy of GV2002 in alleviating impairment in motor ability.
To prevent changes in mouse behavioral responses, handling was performed for five days (days 1 to 5) prior to the experiment. Each handling session lasted two minutes. On day 6, mice were placed in a 40 cm × 40 cm enclosure and subjected to an open field experiment for 10 minutes. Prior to the experiment, mice were allowed one hour to acclimate to the testing environment. During the open field experiment, movement trajectories, distance traveled, and movement speed of the mice were recorded. The illumination level was maintained at a constant level throughout the experiment. The recorded values were analyzed using one-way ANOVA with Dunnett's multiple comparisons test.

[4] = Stability in human plasma (LC-MS, residual peptide); type: in vitro ADME; conditions: 37 °C, read-out: percentage of residual peptide relative to the peptide amount before reaction
Description: The peptide was added to human plasma and diluted to a concentration of 5 µM, followed by incubation at 37 °C for 10, 60, and 240 minutes with stirring. The reaction mixture was collected and pretreated by plasma protein precipitation using methanol containing 0.1% formic acid. The resulting supernatants were collected and analyzed by LC-MS under the conditions shown in Table 1 below to determine the percentage of residual peptide relative to the initial peptide amount.

In the case of Ac-EARPALLTSRLRFIPK-NH2 [GV2002], the “AT8 fluorescence intensity, reduction compared to the vehicle-administered group” value (“AT8 fluorescence intensity, reduction” for short) ([1]; hippocampus region) is reported as 62%, the “AT8 fluorescence intensity, reduction” value ([1]; motor cortex region) is reported as 65% and the “AT8 fluorescence intensity, reduction” value ([1]; somatosensory cortex region) is reported as 57%. The “AT8 fluorescence intensity, reduction” value ([1]; substantia nigra region) was 69%, the “Tau-BiFC fluorescence intensity, reduction compared to the vehicle-administered group” value (tau oligomer formation; hippocampus region) was 63% and the “Tau-BiFC fluorescence intensity, reduction compared to the vehicle-administered group” value (tau oligomer formation; motor cortex region) was 56%. The “Tau-BiFC fluorescence intensity, reduction compared to the vehicle-administered group” value (tau oligomer formation; somatosensory cortex region) was 58%, the “Tau-BiFC fluorescence intensity, reduction compared to the vehicle-administered group” value (tau oligomer formation; substantia nigra region) was 56% and the “rate of spontaneous alternation behavior compared to the vehicle-administered group” value (4R Tau^P301L-BiFC mouse [2]) was “significant increase”. The “movement speed in the open space compared to the vehicle-administered group” value (4R Tau^P301L-BiFC mouse [3]) was “significantly higher”, the “total distance traveled in the open space compared to the vehicle-administered group” value (4R Tau^P301L-BiFC mouse [3]) was “significantly higher” and the remaining at 1 h, 5 µM ([4]; 60 minutes) was 57.2%. For the same substance, the remaining at 4 h, 5 µM ([4]; 240 minutes) was 46.5%.
